In patent publication US10011602B2, “Immunological reagents and uses therefor” (THE UNIVERSITY OF MELBOURNE, priority 2012, dated 2018):
Changes are numbered by the printed parent chain.

B1: mouse MR1 refolded with 6-FP: tetramers from mouse MR1 (BirA peptide-tagged) refolded with 6-FP (protein, UniProt Q8HWB0 19-341, looked up)
Major histocompatibility …: RTHSLRYFRLAVSDPGPVVPEFISVGYVDSHPITTYDSVTRQKEPKAPWMAENLAPDHWERYTQLLRGWQQTFKAELRHLQRHYNHSGLHTYQRMIGCELLEDGSTTGFLQYAYDGQDFIIFNKDTLSWLAMDYVAHITKQAWEANLHELQYQKNWLEEECIAWLKRFLEYGRDTLERTEHPVVRTTRKETFPGITTFFCRAHGFYPPEISMTWMKNGEEIAQEVDYGGVLPSGDGTYQTWLSVNLDPQSNDVYSCHVEHCGRQMVLEAPRESGDILRVSTISGTTILIIALAGVGVLIWRRSQELKEVMYQPTQVNEGSSPS
modifications: BirA tag, tetramer, 6-FP ligand
B2: rRL-6-CH2OH-loaded mouse Lys43Ala-MR1: tetramers of mouse Lys43Ala-MR1 loaded with rRL-6-CH2OH (protein, UniProt Q8HWB0 19-341, looked up, variant K43A)
Major histocompatibility …: B1 Major histocompatibility … with K43A
modifications: tetramer loaded with rRL-6-CH2OH
notes: tetramers of mouse Lys43Ala-MR1 loaded with rRL-6-CH2OH

How the values were obtained:
MR1 = biological target: T1, MR1 (Homo sapiens, UniProt Q95460); test: Refolding of denatured MR1 and β2m with ligands; assay type: binding; conditions: substance added to MR1/β2m refold
T1 construct: soluble human MR1 (residues 1-270 of the mature, leaderless protein); made in house
Method: Genes encoding soluble human MR1 (residues 1-270 of the mature, leaderless protein, lacking the transmembrane and cytoplasmic domains); or human β2m (mature, leaderless protein) were expressed for four hours in BL21 E. coli following induction with 1 mM isopropyl β-D-1-thiogalactopyranoside. E. coli were pelleted and resuspended in a buffer containing 50 mM Tris, 25% (w/v) sucrose, 1 mM EDTA, 10 mM DTT pH 8.0. Inclusion body protein was then extracted by lysis of bacteria in a buffer containing 50 mM Tris pH 8.0, 1% (w/v) Triton X-100, 1% (w/v) sodium deoxycholate, 100 mM NaCl, 10 mM DTT, 5 mM MgCl2, and 1 mg DnaseI per liter of starting culture; and subsequent steps involved homogenization with a polytron homogenizer, centrifugation, and washing inclusion body protein sequentially with firstly a buffer containing 50 mM Tris pH 8, […], 100 mM NaCl, 1 mM EDTA, 1 mM DTT, and secondly a buffer containing 50 mM Tris pH 8.0, 1 mM EDTA, 1 mM DTT. Inclusion body protein was then resuspended in a buffer containing 20 mM Tris pH 8.0, 8 M urea, 0.5 mM EDTA, 1 mM DTT, and following centrifugation the supernatant containing solubilized, denatured inclusion body protein was collected and stored at −80° C.
2 mg of 6-formyl pterin, 56 mg of denatured inclusion body MR1 protein, and 28 mg of β2m protein were added to a 400 ml refold buffer solution containing 0.1 M Tris pH 8.5, 2 mM EDTA, 0.4 M arginine, 0.5 mM oxidized glutathione, 5 mM reduced glutathione. Variably, 5M urea was either present or absent. Following an overnight incubation at 4° C., the refold buffer was dialysed against 3 changes of buffer containing 10 mM Tris, pH8.0 over a period of 24 hours. Refolded MR1-β2m-ligand complex was then purified by sequential DEAE (GE Healthcare) anion exchange, S75 16/60 (GE Healthcare) gel filtration, and MonoQ (GE Healthcare) anion exchange chromatography.

Jurkat.MAIT cells = test: Activation of Jurkat.MAIT cells (CD69) with C1R antigen presenting cells expressing MR1; assay type: cell-based, human
Method: Jurkat cells transduced with a MAIT TCR comprising the TRAV1-2+TRAJ33 invariant α chain, and a TRBV6-1 β chain were tested for activation by addition of Salmonella supernatant to C1R antigen presenting cells expressing MR1 for 16 hours. Jurkat.MAIT cells were subsequently stained with PE-conjugated anti-CD3, and APC-conjugated anti-CD69 antibodies before analysis by flow cytometry. Activation of Jurkat.MAIT cells was measured by an increase in surface CD69 expression. Compounds to be tested for the ability to activate Jurkat.MAIT cells were tested alongside Salmonella supernatant.
A biological assay for the activation of MAIT T cell receptor (TCR)-expressing T cell lines (into which genes encoding the MAIT TCR alpha and beta chains had been introduced), by antigen presenting cells (expressing MR1 on the cell surface) infected with the bacterium Salmonella typhimurium has been established. This assay measures the increase in expression of the cell surface activation marker, CD69, upon activation of MAIT T cells.

MAIT cells = test: Re-presentation assay: refolded soluble MR1 added to antigen presenting cells expressing MR1 and MAIT cells; assay type: cell-based; conditions: MR1 refolded with the named substance
human PBMC MAIT cells = test: MR1 tetramer staining of human PBMCs (flow cytometry); assay type: cell-based; conditions: PE-streptavidin tetramers; D5, CD161 co-staining
Method: Biotinylated MR1 (produced in either of the 2 methods mentioned above) is used to make tetramers by the addition of biotinylated MR1 to PE Streptavidin (#554061, BD Pharmingen) in a 4:1 molar ratio. PE Streptavidin is added sequentially in 1/10 aliquots to biotinylated MR1 at 10 minute intervals to ensure efficient tetramization.
Human MAIT cells are identified as being D5-positive (D5 mAb stains Vα7.2,-positive T cells; Vα7.2 is the invariant Vα-chain utilized by human MAIT cells) and CD161-positive. Human PBMCs were stained with CD3-PE-Cy7, CD8-PerCP, CD4-APC-Cy7, CD161-APC specific mAbs; as well as the anti-Vα7.2-FITC mAb D5 (generated in-house; human MAIT cells utilize the Vα7.2 alpha chain) and PE-labeled tetramers of mouse MR1-β2m-acetyl-6-Formyl Pterin (mouse MR1 had been refolded with either 6-formyl pterin or acetyl-6-formyl pterin).

Jurkat.LC13 line = test: Activation of control Jurkat.LC13 line in the presence of C1R.HLA-B8 cells; assay type: cell-based, human
From the text: Next, to formally establish whether 7-hydroxy-6-methyl-8-ribityl lumazine and/or its precursor, 6,7-dimethyl-8-ribityl lumazine, could activate MAIT cells, both compounds were chemically synthesized their ability to enable MR1 refolding and to activate Jurkat.MAIT cells and human MAIT cells from peripheral blood tested. […] Thus, direct precursors of riboflavin biosynthesis activate MAIT cells.

[1] = test system: human MAIT cells from peripheral blood; test: Activation of primary MAIT cells from PBMCs (CD69, IFN-γ, TNF-α); assay type: cell-based; conditions: PBMCs with C1R cells expressing MR1
Method: PBMCs from a healthy donor were mixed with C1R-huMR1 cells (10^5 each/well). Salmonella SL1344 supernatant (2 μl) from cultures grown in LB supplemented with 25 μg/ml streptomycin (Sigma) for 4 hr at 37° C., or compounds (35A, 36A, 48G: 25 μg/ml final, A-6FP: 10 μM final) or PMA (2 ng/ml+ionomycin (1 ng/ml) added in a total volume of 220 μl RF-10, and incubated overnight at 37° C. Cells were stained with anti-CD3-PE-Cy7 (eBioscience, 20 μg/ml), anti-CD4-APC-Cy7 (Biolegend, 1.7 μg/ml), anti-CD161-APC (Miltenyi Biotec, 1:50), FITC-conjugated D5 (anti-MAIT TCR, 10 μg/ml) and either anti-CD69-PE (BD Biosciences 1:50), anti-IFNγ-PE (BD Pharmingen 10 μg/ml) or anti-TNFα-PE (BD Pharmingen 10 μg/ml), and analyzed by flow cytometry using a Canto II cytometer and Diva software. For intracellular cytokine staining, brefeldin A (10 μg/ml) was added to the assay after the first 1 hr and the incubation allowed to proceed overnight. Cells were fixed with 1% parformaldehyde after staining for surface markers and permeabilised with 1% saponin during cytokine stains. MAIT cells were defined as CD3^+, CD4^−, CD161^+, D5^+ after gating on PBMCs using FSC and SSC.
PBMCs from a healthy donor were mixed with C1R cells expressing MR1 (10^5 each/well). Salmonella SL1344 supernatant (2 μl) from cultures grown in LB supplemented with 25 μg/ml streptomycin (Sigma) for 4 hr at 37° C., or compounds (RL-6,7-diMe, RL-6-Me-7-OH, 6FP: 76.2 μM final, rRL-6-HM: 0.152 μM final) or PMA (2 ng/ml+ionomycin (1 ng/ml) added in a total volume of 220 μl RF-10, and incubated overnight at 37° C. Cells were stained with anti-CD3-PE-Cy7 (eBioscience, 20 μg/ml), anti-CD4-APC-Cy7 (Biolegend, 1.7 μg/ml), anti-CD161-APC (Miltenyi Biotec, 1:50), FITC-conjugated D5 (anti-MAIT TCR, 10 μg/ml) and either anti-CD69-PE (BD Biosciences 1:50), anti-IFNγ-PE (BD Pharmingen 10 μg/ml) or anti-TNFα-PE (BD Pharmingen 10 μg/ml), and analyzed by flow cytometry using a Canto II cytometer and Diva software. […] CD69 expression was analysed by flow cytometry. […]

[2] = test system: Jurkat cells expressing a conventional T cell receptor; test: Control: inhibition of activation of Jurkat cells expressing a conventional T cell receptor by viral peptide-classical class I complexes; assay type: cell-based, human; conditions: antigen presenting cells displaying viral peptide-classical class I complexes
From the text: Thus, 6-formyl pterin has been identified as a potential antagonist compound, capable of blocking activation of MAIT cells by bacterial activating ligands.

T1 sequence (Q95460 23-292): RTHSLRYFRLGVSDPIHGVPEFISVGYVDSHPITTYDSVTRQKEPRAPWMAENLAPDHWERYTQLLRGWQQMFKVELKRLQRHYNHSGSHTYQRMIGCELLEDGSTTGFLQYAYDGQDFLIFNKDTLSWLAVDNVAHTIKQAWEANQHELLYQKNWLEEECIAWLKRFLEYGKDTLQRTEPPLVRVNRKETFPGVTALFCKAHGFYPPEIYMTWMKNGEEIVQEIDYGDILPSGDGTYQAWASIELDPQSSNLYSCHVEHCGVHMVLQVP
T1 sequence (P61769 21-119 partner): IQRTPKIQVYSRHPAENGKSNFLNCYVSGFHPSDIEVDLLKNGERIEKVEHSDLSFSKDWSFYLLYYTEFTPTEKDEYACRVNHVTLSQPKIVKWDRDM

Molecule | Ability to refold MR1 into native MR1-β2m complex (MR1) | Activation of Jurkat.MAIT cells (increase in surface CD69) (Jurkat.MAIT cells) | Tetramer staining of human PBMC MAIT cells (human PBMC MAIT cells) | also measured
Cc1nc2nc(N)[nH]c(=O)c2nc1C [6-7-dimethylpterin] | inability | – | – | –
Cc1cc2nc3c(=O)[nH]c(=O)nc-3n(C[C@H](O)[C@H](O)[C@H](O)CO)c2cc1C [riboflavin, reference compound] | did not form MR1-β2m complexes | did not | – | –
Nc1nc2ncc(CNc3ccc(C(=O)N[C@@H](CCC(=O)O)C(=O)O)cc3)nc2c(=O)[nH]1 [Folic acid] | yielded significant amounts of native MR1 | – | – | Activation of MAIT cells by MR1 refolded with the substance (re-presentation assay) (MAIT cells): failed to activate; Activation of MAIT cells by MR1 refolded with the substance (re-presentation assay) (MAIT cells; listed as folic acid): non-stimulatory
human Leucine151Alanine MR1 refolded with acetyl-6-FP: tetramers from human Leucine151Alanine MR1 (BirA peptide-tagged) refolded with acetyl-6-FP | – | – | stain a proportion | –
Nc1nc2nccnc2c(=O)[nH]1 [pterin] | inability | – | – | –
human wild-type MR1 refolded with 6-FP: control tetramers from human wild-type MR1 refolded with 6-FP | – | – | fail to stain | –
Cc1nc2c(=O)[nH]c(=O)nc-2n(C[C@H](O)[C@H](O)[C@H](O)CO)c1O [Compound 2, 7-hydroxy-6-methyl-8-D-ribityllumazine] | could be refolded with MR1 | activated | – | Activation of control Jurkat.LC13 line (Jurkat.LC13 line): failed to activate; Activation of MAIT cells (CD69 upregulation, intracellular IFN-γ and TNF-α) [1]: specifically activated
Nc1nc2ncc(C=O)nc2c(=O)[nH]1 [Compound 6-FP, 6-formyl pterin, reference compound] | indistinguishable from MR1 refolded with folic acid | did not activate | – | Inhibitory effect on activation of Jurkat cells expressing a conventional T cell receptor [2]: no inhibitory effect; Activation of MAIT cells (CD69 upregulation, intracellular IFN-γ and TNF-α) [1]: did not activate
B1 | – | – | can stain a proportion | –
B2 | – | – | identify a CD161-positive, D5-positive population | –
